# Experimental data: US20220002772A1, “METHOD FOR PRODUCING ALLOLACTOSE” (priority 2019, published 2022)
# Experiments:
# [1] = test system: lac promoter on the pUC19 plasmid; assay: Lac promoter inducibility with DasherGFP reporter (JM109+pUC-DGFP-PtI strain); format: cell-based, E. coli JM109; settings: allolactose at 0.0075 mM in LB agar medium, 37° C. overnight, UV illuminator
# Protocol: It is assumed that since blue coloration of the degradation product of X-gal by beta-galactosidase (LacZ) was used as the evaluation index in the evaluation in (6) above, allolactose was degraded by beta-galactosidase (LacZ), which is the reporter gene, and as a result the lac promoter inducibility of allolactose was attenuated under conditions with allolactose concentrations of 0.0075 to 0.015 mM.
# PCR was performed by using FPB-27-441 plasmid (Cosmo Bio) as the template and primers of SEQ ID NOS: 5 and 6, to amplify a gene fragment encoding DasherGFP. Separately, PCR was performed by using a plasmid pUC19 plasmid (Takara Bio) as the template and primers of SEQ ID NOS: 7 and 8, to amplify an outside fragment of the plasmid. The PCR products were each purified by using Wizard SV Gel and PCR Clean-Up System (Promega). In-Fusion HD Cloning Kit (Takara Bio) was used to ligate the purified PCR products. E. coli JM109 was transformed with the reaction product, and cultured on LB agar medium containing 50 mg/L ampicillin at 37° C. overnight, to form colonies, to thereby obtain a transformant. A plasmid pUC19-DGFP, in which LacZα gene has been replaced with DasherGFP gene, was obtained from the obtained transformant by using Wizard Plus Miniprep System (Promega). […]
# lac promoter = assay: Lac promoter inducibility in pET expression system (GH1-2 protein expression, SDS-PAGE, strain EcGHH6); format: cell-based, E. coli Rosetta 2(DE3)pLysS; settings: liquid culture
# Protocol: The lac promoter inducibility of allolactose was evaluated using the inducibility of pET expression system, which is commonly used for heterologous protein production, as an indicator. In the pET expression system, T7-polymerase, which is inducibly expressed from the lac promoter, highly expresses a gene downstream of the T7 promoter (e.g. a gene encoding a heterologous protein). As the heterologous protein to be produced, beta-galactosidase gene of a filamentous fungus Talaromyces cellulolyticus (hereinafter, also referred to as “gh1-2 gene”) was used.
# RNA was prepared form cells of the T. cellulolyticus strain Y-94 (CBS 136886) by using RNeasy Plant Mini Kit (QIAGEN), and a full-length cDNA solution was prepared form the RNA solution by using SMARTer® RACE 5′/3′ kit. PCR was performed by using the cDNA solution as the template and primers of SEQ ID NOS: 13 and 14, to amplify a cDNA fragment of gh1-2 gene. Separately, PCR was performed by using a plasmid pET24a (Novagen) as the template and primers of SEQ ID NOS: 3 and 4, to amplify an outside fragment of the plasmid. The PCR products were each purified by using Wizard SV Gel and PCR Clean-Up System (Promega). In-Fusion HD Cloning Kit (Takara Bio) was used to ligate the purified PCR products. […]
# [2] = test system: lac promoter on the pUC19 plasmid; assay: Lac promoter inducibility by Blue-White screening method (JM109+pUC19 strain, X-Gal plates); format: cell-based, E. coli JM109; parameters: key to Blue coloration of formed colonies of JM109 + pUC19 strain: “x (cross)” indicates no blue coloration; “Δ (triangle)” indicates unclear blue coloration; “∘ (circle)” indicates clear blue coloration
# Protocol: The lac promoter inducibility of allolactose was evaluated by the Blue-White screening method using E. coli JM109 and pUC19 plasmid.
# Competent cells of E. coli JM109 (Takara Bio) were transformed with pUC19 plasmid (Takara Bio), and cultured on LB agar medium containing 50 mg/L ampicillin at 37° C. overnight, to form colonies. The formed colonies were streaked on LB agar medium containing 50 mg/L ampicillin, and single colonies were obtained, to thereby obtain a strain JM109+pUC19. […] Beta-galactosidase activity of the strain JM109 is lost unless alpha-complementarity is exerted.
# The reaction mixture containing 55.8 g/L of allolactose obtained in (4) above was subjected to heating at 95° C. for 10 minutes to inactivate the enzyme, and the supernatant was passed through a 0.22 μm pore size filter, to obtain an allolactose solution. The obtained allolactose solution was diluted according to the dilution factors listed in Table 4 and added to LB agar media, and X-Gal (Thermo Fisher Scientific) was further added, to prepare LB agar media for Blue-White screening containing various concentrations of allolactose and X-gal. X-gal is degraded by beta-galactosidase, and the degradation product thereof, 4-chloro-3-bromo-indigo, provides blue coloration.
# The JM109+pUC19 strain was streaked on each LB agar medium for Blue-White screening and cultured at 37° C. overnight, and the coloration of single-isolated colonies was observed.
compound,measurement,setting,value
OC[C@H]1O[C@@H](OC[C@H]2OC(O)[C@H](O)[C@@H](O)[C@@H]2O)[C@H](O)[C@@H](O)[C@H]1O (some centres unmarked) [allolactose],Fluorescent coloration of colonies (DasherGFP expression from lac promoter),[1],fluorescent coloration of the colonies of the JM109+pUC-DGFP-PtI strain was observed
same,Expression level of heterologous protein (GH1-2),lac promoter; allolactose concentrations below 0.1 mM,decreased
same,Expression of heterologous protein (GH1-2) compared with induction by 1 mM IPTG,"lac promoter; allolactose final concentration 0.1 mM, 13° C., 14 hours",almost equally
same,Blue coloration of colonies (lac promoter inducibility),[2]; allolactose concentrations of 0.0075 to 0.015 mM,blue coloration was obscured
same,"Blue coloration of colonies, i.e. induction of gene expression from the lac promoter",[2]; allolactose concentrations of 0.03 to 1.5 mM,blue coloration of colonies was observed
same,Blue coloration of formed colonies of JM109 + pUC19 strain,[2]; final concentration of allolactose in plate media 0.0075 mM (dilution factor 21736),Δ
same,Blue coloration of formed colonies of JM109 + pUC19 strain,[2]; final concentration of allolactose in plate media 0.015 mM (dilution factor 10868),Δ
same,Blue coloration of formed colonies of JM109 + pUC19 strain,[2]; final concentration of allolactose in plate media 0.03 mM (dilution factor 5434),∘
same,Blue coloration of formed colonies of JM109 + pUC19 strain,[2]; final concentration of allolactose in plate media 0.075 mM (dilution factor 2174),∘
same,Blue coloration of formed colonies of JM109 + pUC19 strain,[2]; final concentration of allolactose in plate media 0.15 mM (dilution factor 1087),∘
same,Blue coloration of formed colonies of JM109 + pUC19 strain,[2]; final concentration of allolactose in plate media 0.3 mM (dilution factor 543),∘
same,Blue coloration of formed colonies of JM109 + pUC19 strain,[2]; final concentration of allolactose in plate media 1.5 mM (dilution factor 109),∘
same,Blue coloration of formed colonies of JM109 + pUC19 strain,[2]; final concentration of allolactose in plate media 3 mM (dilution factor 54),Δ
same,Blue coloration of formed colonies of JM109 + pUC19 strain,[2]; final concentration of allolactose in plate media 15 mM (dilution factor 11),x
